Experimental data: patent publication US20120009164A1, “Increasing Probiotic Growth Rate and Activity Using Prebiotic Composition” (MASTER SUPPLEMENTS, INC., priority 2010, published 2012)

Assays:
[1] = system: Lactobacillus paracasei Lpc-37 (F-19); assay: Growth (turbidity) and lactic acid producing activity in MRS broth, L. paracasei Lpc-37; type: cell-based; conditions: for Lactic Acid % / NTU (Turbidity) / pH: additive 0.1% in MRS (polysorbate 80 control: 1.0 g per liter)
Method: (§1) Prebiotic formulations are often probiotic strain dependent. Some Lactobacillus strains, for example, respond best to a form of lecithin derived from sunflowers (Sunflower Lecithin) while others show no preference to lecithin type and respond equally well to soy lecithin. Other strains show a synergistic response when lecithin is used together with oleic acid. […] Each flask was tempered to 37° C. and aseptically inoculated with 0.14 gm of the individual probiotic strains (in Examples 5 to 10 below) to be tested. At specified time intervals, a 30 ml sample from each flask was aseptically transferred into a HACH […] Turbidimeter sample cell. The turbidity of each sample was read and the results were reported in NTU's. The same 30 ml sample used for the turbidity reading was transferred into a 250 ml glass beaker, and the pH was recorded. The sample was titrated using 0.1N NaOH to an endpoint of pH 6.8, and the quantity of NaOH used was recorded. The % Lactic Acid was calculated using the following formula: % Lactic Acid=((mls of 0.1N NaOH)×(0.1N)×(90 gm/mole)×(1 L/1000 ml))×100 mls of sample % Lactic Acid=(mls of 0.1N NaOH)×(0.9) (Results reported at 12 hours and 23 hours like: 12/23 in Table III below)

[2] = system: Lactobacillus salivarius Ls-33 (LS-30); assay: Growth (turbidity) and lactic acid producing activity in MRS broth, L. salivarius Ls-33; type: cell-based; conditions: for Lactic Acid % / NTU (Turbidity) / pH: additive 0.1% in MRS (polysorbate 80 control: 1.0 g per liter)
Method: as §1, with “V” for “III”

[3] = system: Lactobacillus rhamnosus Lr-32 (LR-44); assay: Growth (turbidity) and lactic acid producing activity in MRS broth, L. rhamnosus Lr-32; type: cell-based; conditions: for Lactic Acid % / NTU (Turbidity) / pH: additive 0.1% in MRS (polysorbate 80 control: 1.0 g per liter)
Method: as §1, with “IV” for “III”

[4] = system: L. acidophilus NCFM (LA-1); assay: Growth (turbidity) and lactic acid producing activity in MRS broth, L. acidophilus NCFM; type: cell-based, Lactobacillus acidophilus
Method: Prebiotic formulations are often probiotic strain dependent. […] At specified time intervals, a 30 ml sample from each flask was aseptically transferred into a HACH […] Turbidimeter sample cell. The turbidity of each sample was read and the results were reported in NTU's. The same 30 ml sample used for the turbidity reading was transferred into a 250 ml glass beaker, and the pH was recorded. The sample was titrated using 0.1N NaOH to an endpoint of pH 6.8, and the quantity of NaOH used was recorded. The % Lactic Acid was calculated using the following formula: % Lactic Acid=((mls of 0.1N NaOH)×(0.1N)×(90 gm/mole)×(1 L/1000 ml))×100 mls of sample % Lactic Acid=(mls of 0.1N NaOH)×(0.9) (Results reported at 12 hours and 23 hours like: 12/23 in Table I below)

[5] = system: Bifidobacterium lactis Bl-04 (BL-34); assay: Growth (turbidity) and lactic acid producing activity in MRS broth, B. lactis Bl-04; type: cell-based; conditions: additive 0.1% in MRS (polysorbate 80 control: 1.0 g per liter)
Method: as §1, with “II” for “III”

[6] = system: THERALAC® Lot # 32310A probiotic strains; assay: Growth of the commercial probiotic Theralac in MRS broth (Example 10); type: cell-based, Lactobacillus and Bifidobacterium strains; conditions: for Lactic Acid % / pH / NTU (Turbidity): additive 0.1% in MRS (polysorbate 80 control: 1.0 g per liter); for NTU (Turbidity): inoculated at 0.1% with THERALAC
Method: MRS broth was prepared with (for controls) and without (for tests) polysorbate 80 and filled into 1 liter screw cap flasks at 500 ml each and autoclaved at 121° C. for 30 minutes. Various lecithin and/or oleic acid additives, or nothing (negative control), was added to the tests flasks prior to autoclaving. The flasks were then tempered to 37° C. in a water bath and inoculated at 0.1% with […]® Lot # 32310A, a commercial probiotic product (Master Supplements, Inc., Victoria, Minn.). Capsules of […]® were opened and the contents mixed aseptically to serve as the inoculum source. At an inoculation rate of 0.1%, approximately 80 million CFU was added per ml of MRS media. […]® contains (formulation strength) the following probiotic strains at the approximate CFU values listed per gram: Lactobacillus acidophilus NCFM (LA-1): 30 billion CFU Bifidobacterium lactis Bl-04 (BL-34): 30 billion CFU Lactobacillus paracasei Lpc-37 (F-19): 14 billion CFU Lactobacillus rhamnosus Lr-32 (LR-44): 6 billion CFU Bifidobacterium lactis Bi-07: 8 billion CFU Turbidity, pH and titrations (made with 0.1 N NaOH and reported as % lactic acid) were made at various times up to 23 hours. The results are presented below in Table VI for the 12 and 23-hour analyses.

[7] = additive 0.1% in MRS (polysorbate 80 control: 1.0 g per liter), 37° C., 12 hours
[8] = additive 0.1% in MRS (polysorbate 80 control: 1.0 g per liter), 37° C., 23 hours
[9] = additive 0.1% in MRS (polysorbate 80 control: 1.0 g per liter), 12 hours
[10] = additive 0.1% in MRS (polysorbate 80 control: 1.0 g per liter), 23 hours
[11] = at the concentrations studied (0.1% + 0.1%)
[12] = additive 0.025% in MRS, 12 hours
[13] = additive 0.025% in MRS, 23 hours

## polysorbate 80 [reference compound]
[1]; 12 hours
  Lactic Acid %: 0.99%
  NTU (Turbidity): 1664 NTU
  pH: 4.2
[1]; 23 hours
  Lactic Acid %: 1.39%
  NTU (Turbidity): 2824 NTU
  pH: 3.9
[2]; 12 hours
  Lactic Acid %: 1.42%
  NTU (Turbidity): 3426 NTU
  pH: 3.8
[2]; 23 hours
  Lactic Acid %: 1.68%
  NTU (Turbidity): 3931 NTU
  pH: 3.7
[3]; 12 hours
  Lactic Acid %: 1.12%
  NTU (Turbidity): 2804 NTU
  pH: 4.0
[3]; 23 hours
  Lactic Acid %: 1.67%
  NTU (Turbidity): 3776 NTU
  pH: 3.7
[4]; [7]
  NTU (Turbidity): 1855 NTU
[4]; [8]
  NTU (Turbidity): 2038 NTU
[4]; [9]
  Lactic Acid %: 1.09%
  pH: 4.2
[4]; [10]
  Lactic Acid %: 1.27%
  pH: 4.1
[5]; 12 hours
  Lactic Acid %: 0.57%
  NTU (Turbidity): 922 NTU
  pH: 4.8
[5]; 23 hours
  Lactic Acid %: 0.84%
  NTU (Turbidity): 1434 NTU
  pH: 4.5
[6]; 12 hours
  Lactic Acid %: 1.42%
  pH: 3.9
  NTU (Turbidity): 3311 NTU
[6]; 23 hours
  Lactic Acid %: 1.84%
  pH: 3.7
  NTU (Turbidity): 3694 NTU

## CCCCCCCC/C=C\CCCCCCCC(=O)O [Oleic Acid, oleic acid]
[1]; 0.1% inclusion rate in MRS
  effectiveness as polysorbate 80 replacement (conclusion): not as effective a replacement for polysorbate 80 as sunflower lecithin
[1]; 12 hours
  Lactic Acid %: 0.33%
  NTU (Turbidity): 178 NTU
  pH: 5.1
[1]; 23 hours
  Lactic Acid %: 1.01%
  NTU (Turbidity): 1789 NTU
  pH: 4.1
[1]; [11]
  synergy of oleic acid with sunflower lecithin (conclusion): does not appear to be synergistic
[2]; 0.1% in MRS, at 12 hours
  lag phase: a lag phase is apparent
[2]; 0.1% inclusion rate in MRS
  effectiveness as polysorbate 80 replacement (conclusion): not as good a replacement
[2]; 12 hours
  Lactic Acid %: 0.073%
  NTU (Turbidity): 1440 NTU
  pH: 4.4
[2]; 23 hours
  Lactic Acid %: 1.51%
  NTU (Turbidity): 3578 NTU
  pH: 3.8
[3]; 0.1% in MRS, at 12 hours
  lag phase: significant lag phase
[3]; 0.1% inclusion rate in MRS
  effectiveness as polysorbate 80 replacement (conclusion): not as good a replacement for polysorbate 80 as sunflower lecithin
[3]; 12 hours
  Lactic Acid %: 0.072%
  NTU (Turbidity): −30.9 NTU
  pH: 6.2
[3]; 23 hours
  Lactic Acid %: 1.05%
  NTU (Turbidity): 2644 NTU
  pH: 4.1
[3]; [11]
  synergy of oleic acid with sunflower lecithin (conclusion): not synergistic
[4]; 0.1% inclusion rate in MRS
  effectiveness as polysorbate 80 replacement (conclusion): somewhat effective
[4]; [12]
  Lactic Acid %: 0.70%
  pH: 4.5
[4]; [13]
  Lactic Acid %: 0.77%
  NTU (Turbidity): 603 NTU
  pH: 4.4
[4]; [7]
  NTU (Turbidity): 1451 NTU
[4]; [8]
  NTU (Turbidity): 1789 NTU
[4]; [9]
  Lactic Acid %: 1.03%
  pH: 4.3
[4]; [10]
  Lactic Acid %: 1.21%
  pH: 4.1
[6]; 0.1% inclusion rate in MRS
  effectiveness as polysorbate 80 replacement (conclusion): acceptable replacement value
[6]; 12 hours
  Lactic Acid %: 1.18%
  pH: 4.1
  NTU (Turbidity): 2775 NTU
[6]; 23 hours
  Lactic Acid %: 1.72%
  pH: 3.8
  NTU (Turbidity): 3529 NTU
